Data set [1] concerns Humicola insolens cutinase (HiC). Type of data set: biochemical.
Data set [2] has as its target T1, Thermobifida cellulosilytica cutinase 1 (THC) (Thermobifida cellulosilytica, UniProt E9LVH8).
T1 construct: made in house
T1 sequence (E9LVH8 1-262): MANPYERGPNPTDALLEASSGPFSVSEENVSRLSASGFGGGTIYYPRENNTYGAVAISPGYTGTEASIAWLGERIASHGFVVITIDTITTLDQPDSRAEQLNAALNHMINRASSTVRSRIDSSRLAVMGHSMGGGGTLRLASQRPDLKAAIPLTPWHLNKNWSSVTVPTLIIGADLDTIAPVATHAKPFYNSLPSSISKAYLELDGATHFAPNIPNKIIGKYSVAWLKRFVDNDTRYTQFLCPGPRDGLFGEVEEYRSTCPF
Type of data set: biochemical.

Data set [3] concerns laccase mediator system. Nature of the data set: Laccase mediator system and methadone, oxygen measurement. Type of data set: biochemical. The conditions noted are these: mediator ABTS (best effect). How it is done: (§1) During the reaction oxygen acts as electron acceptor and is reduced to water by laccases while the mediators are oxidized. The concentration of oxygen was measured as described above. Oxygen is consumed until the mediator is fully oxidized. […] The second step of the reaction is initiated by addition of the target substrate, which is consequently oxidized by the mediators.
(§2) In the present experiments the final reaction mixtures contained 0.2 to 6 mM mediator, 1-10 units of laccase per ml and 100-3000 mg L^−1 opioid.
For methadone, oxygen measurements were done, but with an extended palette of mediators: In addition to the aforementioned mediators, syringic acid, TEMPO, syringol and ABTS were tested.

The test system of data set [4] is laccase. The data set can be described thus: Thin layer chromatography of enzymatic conversion. Type of data set: biochemical. The conditions noted are these: samples at 2, 10, 30, 60, 120 minutes.
The test system of data set [5] is laccase from Myceliophthora thermophila (MtL). Nature of the data set: Polymerization of morphine with laccase from Myceliophthora thermophila (high concentrations). Format: biochemical. The settings on record: MTL 10 U to 100 U, 50 mM sodium phosphate buffer pH 7.
Experimental: The reactions were carried out in 50 mM sodium phosphate buffer pH 7.
For data set [6] the test system is unchanged. Nature of the data set: Oxygen measurement of laccase catalysed oxidation of opioids (MtL). Type of data set: biochemical. The conditions noted are these: 10 U/ml MtL, 2 mg/ml substrate, distilled water, room temperature. An excerpt:
(§3) Laccases use oxygen as electron acceptor, consequently the oxygen concentration decreases upon substrate oxidation.

For data set [7], the system named is laccase from Trametes villosa (TvL). Nature of the data set: Oxygen measurement of laccase catalysed oxidation of opioids (TvL). The conditions noted are these: 10 U/ml TvL, 2 mg/ml substrate, distilled water; for oxygen concentration in solution upon laccase oxidation: room temperature. Format: biochemical.
Excerpt: as §3

The subject of data set [8] is laccase mediator system. The data set can be described thus: Laccase mediator system and oxycodone, oxygen concentration measurement. Type of data set: biochemical. The settings on record: 10 units laccase/ml, 1000 mg/L oxycodone. On the procedure: as §1, §2
The different mediators were used at concentrations of 2 mM with 10 units laccase ml^−1 and 1000 mgL^−1 oxycodone.

The test system of data set [9] is laccase mediator system. Nature of the data set: Laccase mediator system and oxycodone, HPLC-MS/TOF. Format: biochemical. On the procedure: The concentrations were determined with a liquid chromatography-electrospray ionization-time of flight (HPLC-ESI-TOF) mass spectrometer from Agilent (A1260 series, Agilent US). The substances contained in the samples were separated by a Zorbax Hilic Plus, 2.1×100 mm, 3.5 μm (Agilent, US) column. The gradient was set to 100% mobile phase A (65 mM ammonium formiate pH 3.2) with a flow rate of 0.4 mL min^−1 at 40° C. and changed to 100% mobile phase B (acetonitrile) in 15 minutes with an injection volume of 1 μL. The spectra were acquired over the m/z range from 100 to 3000 at a scan rate of two spectra per second. The standard curve for each opioid was performed with corresponding standards ranging from 0.001 to 50 mg L^−1.
In addition to the reactions shown in FIG. 17, the mediator vanillin was used at a higher concentration (6 mM). The results can be seen in FIG. 18 and FIG. 19. […] One of oxycodone's main degradation products, oxymorphone, was found in all samples. Oxymorphone is an impurity of oxycodone and is therefore present even in the controls where no laccase or mediator were used.

Data set [10] addresses T2, pepsin (Sus scrofa, UniProt P00791).
T2 construct: purchased Sigma-Aldrich (US) P7000
The data set can be described thus: Pepsin digestion assay in simulated gastric fluid with SDS-PAGE. Type of data set: in vitro ADME. The conditions noted are these: SGF pH 1.2 with pepsin, 37° C. How it is done: SGF contains 0.084 M HCl, 0.035 M NaCl, 4000 U of pepsin per reaction mixture and has a pH level of 1.2 according to the United States Pharmacopeia (1995). A ratio of 10000 Units of pepsin activity to 1 mg of test protein was used throughout the assay, which is based on an evaluation of the average activity of pepsin recommended in the United States Pharmacopeia (24th edition, 2000) with some modifications. Pepsin (ref. #P7000) was purchased from Sigma-Aldrich (US). All proteins that were used were dissolved in 50 mM Tris-HCl (pH 9.5) at a concentration of 5 mg mL^−1. The reaction mixture contained 1.52 mL of SGF preheated to 37° C. before the addition of 0.08 mL of protein solution (Thomas et al., 2004). The mixture was placed into a thermomixer at 37° C. and was shaken at 400 rpm. For denaturating SDS-polyacrylamide gel electrophoresis (SDS-PAGE) analysis samples of 160 μl were removed at 0 minutes, 0.5 minutes, and 15 minutes after initiation.
SDS-PAGE was performed to analyze and visually inspect stained protein bands whether the protein band is still intact or fragmented after the digestion assay. […]
Each 160 μl of the digestion samples was quenched by adding 56 μl of 200 mM NaHCO3 as neutralization step and 56 μl 4× Laemmli (Laemmli 1970) buffer for electrophoresis. Samples were immediately heated up to 99° C. for 10 minutes and analyzed directly or stored at −20° C. […]

T2 sequence (P00791 60-385): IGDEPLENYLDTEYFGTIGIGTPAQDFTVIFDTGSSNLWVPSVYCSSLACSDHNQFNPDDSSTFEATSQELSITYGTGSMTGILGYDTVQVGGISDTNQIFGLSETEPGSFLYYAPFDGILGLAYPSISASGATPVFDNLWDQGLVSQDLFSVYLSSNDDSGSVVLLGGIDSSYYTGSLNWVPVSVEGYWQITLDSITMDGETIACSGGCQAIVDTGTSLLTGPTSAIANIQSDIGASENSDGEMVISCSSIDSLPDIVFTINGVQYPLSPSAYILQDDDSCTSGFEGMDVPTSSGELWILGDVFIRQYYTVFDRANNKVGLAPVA

In the case of `CC(=O)Oc1ccc2c3c1O[C@H]1[C@@H](OC(C)=O)C=C[C@H]4[C@@H](C2)N(C)CC[C@@]341` [diacetylmorphine], the DAM concentration entry in data set [1] and in data set [2] was “declines” in each case. Moreover, the “morphine concentration formed from DAM” value in data set [1] and in data set [2] was “increased” in each case. Also, the “diacetylmorphine hydrolyzed (total acetate yield, HPLC/RI)” value in data set [1] (pH 7) and in data set [2] (pH 7) was “more than 50%” in each case.
As for `CCC(=O)C(CC(C)N(C)C)(c1ccccc1)c1ccccc1` (stereo not drawn) [methadone], in data set [3], the “oxygen concentration after addition of the opioid” value was “decline in oxygen concentration”.
For `CN1CC[C@]23c4c5ccc(O)c4O[C@H]2[C@@H](O)C=C[C@H]3[C@H]1C5` [morphine], the “time at which new dot(s) appear on TLC (new product)” value in data set [4] is 120 s. The “faster degradation of morphine with 10 times more laccase” value in [5] is reported as approximately 10 times.
With `COc1ccc2c3c1O[C@H]1C(=O)CC[C@@]4(O)[C@@H](C2)N(C)CC[C@]314` [oxycodone], the “oxygen concentration in solution upon laccase oxidation” value in data set [6] and in [7] was “not capable of converting oxycodone” in each case. Further, the “oxygen concentration after addition of the opioid” value is on record as “drop in oxygen concentration” in data set [8] (mediator ethylvanillin 2 mM), “no apparent effect” in data set [8] (mediator gallic acid 2 mM), “drop in oxygen concentration” in [8] (mediator syringic acid 2 mM) and “drop in oxygen concentration” in [8] (mediator vanillin 2 mM). The “oxycodone concentration (HPLC-MS/TOF)” value in [9] (laccase mediator system, mediators at 2 mM, vanillin also 6 mM) is “decrease in oxycodone concentration was confirmed”. Further, in data set [9] (mediator gallic acid), the “effect on oxycodone (MS-TOF analysis)” value is recorded as “no apparent effect”. In addition, the “peak area of oxymorphone (degradation product) by MS-TOF” value in data set [9] (oxycodone in combination with the laccase mediator system) is “increase in peak area of oxymorphone over time”.
With `CC[C@@H](c1cccc(O)c1)[C@@H](C)CN(C)C` [tapentadol], the “oxygen concentration in solution upon laccase oxidation” value in data set [6] was “much slower”. In [7], the “oxygen level to which the curve drops” value is reported as approximately 0% and the “oxygen concentration in solution upon laccase oxidation” value is reported as “converts tapentadol better”. Further, in [4], the “time at which new dot(s) appear on TLC (new product)” value amounted to 120 s and the “time at which the reference dot disappears on TLC (all converted)” value turned out to be 120 min.
HRP: horse radish peroxidase: the “proteolytic degradation (SDS-PAGE)” value in [10] is “very susceptible to proteolytic degradation”.

These data come from patent US20190070268A1, “ABUSE-DETERRENT PHARMACEUTICAL COMPOSITIONS” (priority 2016, published 2019).
